Experimental data: patent US20250179047A1, “5-[7-(3,4-DIHYDRO-1H-ISOQUINOLINE-2-CARBONYL)-1,2,3,4 TETRAHYDROISOQUINOLIN-6-YL]-1H-PYRROLE-3-CARBOXAMIDE DERIVATIVES, PHARMACEUTICAL COMPOSITIONS CONTAINING THEM AND THEIR USES AS PRO-APOPTOTIC AGENTS” (LES LABORATOIRES SERVIER, priority 2022, published 2025)

Experiments:
[1] = test system: KMS-12-PE Bcl-2 G101V; assay: In vitro cytotoxicity CellTiter-Glo 48 h, KMS-12-PE Bcl-2 G101V; assay type: cell-based; details: for Ratio (G101V/WT): C50 KMS-12-PE Bcl-2 G101V over C50 KMS-12-PE Bcl-2 WT; for IC50: Homo sapiens, KMS-12-PE, 48 h, CellTiter-Glo, C50 = concentration needed to reach 50% of the cellular viability
Procedure, shortened: (§1)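 Potency is expressed as C50, the compound concentration at which viability of engineered KMS-12-PE cells (Bcl-2 wild type or G101V) falls to 50%, determined from CellTiter-Glo luminescence after 48 h of treatment over 11 concentrations.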

[2] = molecular target: BCLXL WT (Homo sapiens (Human), UniProt Q07817); assay: TR-FRET competitive binding assay, BCLXL WT; details: for Ki: BCLXL WT, Ki determined from IC50, read-out: TR_FRET EKI BclxL; for TR_FRET EKI BCLxL/WT selectivty ratio: ratio Ki BCLxL / Ki BCL2 WT
Procedure, shortened: (§2)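 Terbium-labelled N-terminal Halo-fusion BCL2 or BCLXL (E. coli), 0.5 nM, competed against fluorescein-labelled PUMA peptide (2 or 20 nM) for 2 h at 23° C in 50 mM Hepes pH 7.5, 150 mM NaCl, 5% DMSO. TR-FRET 520/495 nm ratio gave IC50 by four-parameter fit; Ki derived from IC50.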

[3] = molecular target: BCL2 G101V (Homo sapiens, UniProt P10415, G101V); assay: TR-FRET competitive binding assay, BCL2 G101V; details: BCL2 G101V; Ki determined from IC50; read-out: TR_FRET EKI_Bcl2 G101V
Procedure, shortened: as §2

[4] = test system: BCL2 G101V; assay: TR-FRET competitive binding assay, BCL2 G101V; set-up: species or system human; details: ratio Ki BCL2 G101V / Ki BCL2 WT
Procedure, shortened: as §2

[5] = molecular target: BCL2 WT (Homo sapiens (Human), UniProt P10415); assay: TR-FRET competitive binding assay, BCL2 WT; details: Ki determined from IC50, read-out: TR_FRET EKI_Bcl2 WT
Procedure, shortened: as §2

[6] = molecular target: BCL2 D103Y (Homo sapiens, UniProt P10415, D103Y); assay: TR-FRET competitive binding assay, BCL2 D103Y; details: Ki determined from IC50, read-out: TR_FRET EKI_Bcl2 D103Y
Procedure, shortened: as §2

[7] = molecular target: BCL2 D111A (Homo sapiens, UniProt P10415, D111A); assay: TR-FRET competitive binding assay, BCL2 D111A; details: Ki determined from IC50, read-out: TR_FRET EKI_Bcl2 D111A
Method: The relative binding potency of each compound was determined in a competitive binding assay using time resolved-fluorescence resonance energy transfer (TR-FRET). The method utilised a fluorescein labelled peptide derived from PUMA (5Flu-Ahx-[…]-NH2 wherein Ahx means 6-hexanoic acid monomer and the amino acid sequence is referred to as SEQ ID:01) which binds to a terbium labelled BCL2 or BCLXL protein. The degree of binding or corresponding compound inhibition can be quantified by the TR-FRET signal between the terbium donor and fluorescein acceptor.
The human BCL2_wild-type (also named BCL2_wt), BCL2_G101V mutant and BCLXL_wild-type were E. coli expressed as a N-terminal Halo-fusion proteins and singly labelled with Terbium on the Halo protein to afford the following amino acid sequences:
wherein the BCL2(1-207) sequence corresponds to UniProtKB® primary accession number P10415 and the BCLXL(2-196) sequence corresponds to UniProtKB® primary accession number Q07817-1.
The assay was performed in a 40 μL volume in white 384-standard well plates (Corning #3574). An 11-point serial dilution of each compound was prepared in DMSO and transferred directly to plate followed by addition of fluorescein labelled peptide and lastly protein. Final assay conditions were 0.5 nM BCL2_wt, BCL2_G101V, BCL2_D103Y, BCL2_F104I, BCL2_D111A or BCLXL_wt, 2 or 20 nM fluorescein labelled peptide, 50 mM Hepes pH 7.5, 150 mM NaCl, 0.5 mM TCEP (Tris(2-carboxyethyl)phosphine), 0.05% Tween 20, 5% DMSO. The mixture was incubated for 2 hours at 23° C.
TR-FRET measurements were performed on a Biotek Synergy Neo plate reader. TR-FRET was measured by excitation of the Terbium-donor at 340 nm and subsequent (delay time 100 μs) measurement of terbium and fluorescein emission at 495 nm and 520 nm, respectively, over a collection time of 300 μs. The TR-FRET signal was calculated as the emission-ratio at 520 nm over 495 nm.
The TR-FRET ratio readout for test compounds was normalized against 0% inhibition controls wells and 100% inhibition control wells. Test compound potency (IC50) was estimated by nonlinear regression using the sigmoidal dose-response (variable slope) using Xlfit 4 (IDBS, Guildford, Surrey, UK, model 205). Were the IC50 could not be determined the % inhibition at the highest tested concentration is given.
y=(A+((B−A)/(1+((C/x)^D))))
where y is the normalized TR-TRET ratio measurement for a given concentration of test compound, x is the concentration of test compound, A is the estimated efficacy (% inhibition) at infinite compound dilution, and B is the maximal efficacy (% inhibition). C is the IC50 value and D is the Hill slope coefficient.
The K1 values were determined from the IC50 values according to Cer et al, Nucleic Acids Res, 2009, July 1; 37 (WebServer issue): W441-W445.

[8] = molecular target: BCL2 F104I (Homo sapiens, UniProt P10415, F104I); assay: TR-FRET competitive binding assay, BCL2 F104I; details: Ki determined from IC50, read-out: TR_FRET EKI_Bcl2 F104I
Procedure, shortened: as §2

[9] = test system: KMS-12-PE Bcl-2 WT; assay: In vitro cytotoxicity CellTiter-Glo 48 h, KMS-12-PE Bcl-2 WT; assay type: cell-based; details: Homo sapiens, KMS-12-PE, C50 = concentration needed to reach 50% of the cellular viability
Procedure, shortened: as §1

BCLXL WT, sequence (Q07817 other isoform, or with tags, fused parts or gaps): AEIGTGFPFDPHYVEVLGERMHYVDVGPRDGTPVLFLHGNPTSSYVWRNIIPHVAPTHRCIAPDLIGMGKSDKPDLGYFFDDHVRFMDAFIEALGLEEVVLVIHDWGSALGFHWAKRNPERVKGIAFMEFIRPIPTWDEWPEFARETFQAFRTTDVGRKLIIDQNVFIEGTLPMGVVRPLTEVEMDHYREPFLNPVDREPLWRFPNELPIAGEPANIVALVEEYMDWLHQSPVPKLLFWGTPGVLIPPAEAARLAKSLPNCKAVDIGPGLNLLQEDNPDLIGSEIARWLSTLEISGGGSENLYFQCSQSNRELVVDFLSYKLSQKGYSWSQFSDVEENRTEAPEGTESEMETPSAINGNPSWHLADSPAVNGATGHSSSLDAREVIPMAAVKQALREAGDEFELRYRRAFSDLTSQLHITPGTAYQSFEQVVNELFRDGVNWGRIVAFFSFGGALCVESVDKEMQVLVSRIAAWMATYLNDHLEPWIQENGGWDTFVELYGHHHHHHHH

| Compound | Ratio (G101V/WT) [1] | IC50 [1] [µM] | Ki [2] [nM] | TR_FRET EKI BCLxL/WT selectivty ratio [2] | Ki [3] [nM] | TR_FRET EKI G101V/WT selectivty ratio [4] | Ki [5] [nM] | Ki [6] [nM] | Ki [7] [nM] | Ki [8] [nM] | IC50 [9] [µM] |
| --- | --- | --- | --- | --- | --- | --- | --- | --- | --- | --- | --- |
| Cc1c(N(C(=O)c2cc(-c3cc4c(cc3C(=O)N3Cc5ccccc5C[C@H]3C)CN(C(=O)Cc3ccc(CCN5CCOCC5)cc3)CC4)n(C)c2C)c2ccc(O)cc2)cc(C#N)n1C [Example 38, N-(5-cyano-1,2-dimethylpyrrol-3-yl)-N-(4-hydroxyphenyl)-1,2-dimethyl-5-(7-{[(3R)-3-methyl-3,4-dihydro-1H-isoquinolin-2-yl]carbonyl}-2-(2-{4-[2-(morpholin-4-yl)ethyl]phenyl}acetyl)-3,4-dihydro-1H-isoquinolin-6-yl)pyrrole-3-carboxamide] | 5.57 | 0.0509 | 1 | 10.0 | 0.5 | 4.8 | 0.1 | 0.32 | 0.15 | 0.82 | 0.0091 |
| Cc1c(N(C(=O)c2cc(-c3cc4c(cc3C(=O)N3Cc5ccccc5C[C@H]3CN3CCCCC3)CN(C(=O)Cc3ccc(Cl)cc3F)CC4)n(C)c2C)c2ccc(O)cc2)cc(C#N)n1C [Example 44, 5-{2-[2-(4-chloro-2-fluorophenyl)acetyl]-7-{[(3S)-3-(piperidin-1-ylmethyl)-3,4-dihydro-1H-isoquinolin-2-yl]carbonyl}-3,4-dihydro-1H-isoquinolin-6-yl}-N-(5-cyano-1,2-dimethylpyrrol-3-yl)-N-(4-hydroxyphenyl)-1,2-dimethylpyrrole-3-carboxamide] | 12.2 | 0.0886 | 2.2 | 36.1 | 0.5 | 8.5 | 0.06 | 0.35 | 0.24 | 1.34 | 0.0073 |
| Cc1c(N(C(=O)c2cc(-c3cc4c(cc3C(=O)N3Cc5ccccc5C[C@H]3C)CN(C(=O)Cc3ccc(OCCN5CCOCC5)cc3Cl)CC4)n(C)c2C)c2ccc(O)cc2)cc(C#N)n1C [Example 46, 5-[2-(2-{2-chloro-4-[2-(morpholin-4-yl)ethoxy]phenyl}acetyl)-7-[(3R)-3-methyl-1,2,3,4-tetrahydroisoquinoline-2-carbonyl]-1,2,3,4-tetrahydroisoquinolin-6-yl]-N-(5-cyano-1,2-dimethyl-1H-pyrrol-3-yl)-N-(4-hydroxyphenyl)-1,2-dimethyl-1H-pyrrole-3-carboxamide] | 5 | 0.0256 | 1.5 | 10.7 | 0.3 | 2.4 | 0.14 | 0.23 | 0.2 | 0.35 | 0.0051 |
